# Laboratory results: paper PMC9699400 (Molecules, 2022)
# Where “and” joins values, the source holds several entries; their conditions need not be identical. Identical values can stand only once. Counter-ions that a name gives are not always drawn. Like-named read-outs stand apart in the source and are kept apart here. Marks after values point to notes of the source that are not given here.
# Tests used:
# [1] = target: T1, AChE (Electrophorus electricus, UniProt O42275); test: CD spectra, secondary structure of AChE
# T1 construct: purchased Sigma-Aldrich Co. (St. Louis, MO, USA)
# Text: The MOS 450 CD spectrometer (Bio-Logic, Claix, France) was used to measure the CD spectra for AChE solution at 190 to 250 nm under ambient temperature. […] The method to analyze the content of specific secondary structures has been reported in our previous study.
# [2] = system: Aβ25–35-induced PC12 cells; test: MDA content in Aβ25–35-induced PC12 cells; assay type: cell-based; conditions: quercetin pretreatment (1–40 µM), 20 µM Aβ25–35 24 h; p < 0.01 relative to the model group
# Experimental: (§1) Each group was provided with six duplicate wells based on different measurement indexes.
# (§2) For cell culture and grouping sample addition, please refer to Section 2.9. After incubation, the culture plate was centrifuged at 200× g for 5 min using a plate centrifuge, and the supernatant was discarded. Next, the cells were collected and broken by ultrasound and centrifuged at 3000 r/min at 4 °C for l0 min, and the supernatant was collected for subsequent assays. The OD was recorded at 532 and 405 nm, respectively, following the instructions mentioned in the manual for the MDA and GSH kits. Intracellular MDA content and GSH levels are expressed as percentages of the control.
# [3] = system: Aβ25–35-induced PC12 cells; test: GSH level in Aβ25–35-induced PC12 cells; assay type: cell-based
# Experimental: as §1, §2
# [4] = target: T1, AChE; test: Inhibitory type kinetics analysis (reversibility plots, Lineweaver-Burk); assay type: biochemical
# Experimental: The type of inhibition was determined using the Lineweaver-Burk plot in double reciprocal form.
# [5] = system: PC12 cells; test: Quercetin-induced toxicity in PC12 cells (MTT); conditions: 1–80 µM, 24 h, n = 6
# Experimental: (§3) PC12 cells were procured from Nanjing KeyGen Biotech Co. Ltd. (Nanjing, China). The cells were maintained in high-glucose DMEM containing 10% fetal bovine serum (FBS) and 1% P-S and incubated under 5% CO2 and 37 °C. PC12 cells in the logarithmic phase were seeded in 96-well (approximately 2 × 10^4/well) or 24-well (approximately 1 × 10^5/well) culture plates, incubated for 24 h, followed by the replacement of the medium.
# [6] = target: T1, AChE; test: Fluorescence quenching of AChE; assay type: binding
# Experimental: After each drop, the solution was mixed and left for 3 min to balance the solution. The fluorescence emission spectra at 290 to 450 nm were scanned at an excitation wavelength of 280 nm, with emission and excitation slot widths of 2.5 nm.
# [7] = system: Aβ25–35-induced PC12 cells; test: Aβ25–35-induced PC12 cell viability (MTT); conditions: then 20 µM Aβ25–35 24 h, model group 51.43 ± 2.61
# Experimental: as §3, §1
# PC12 cells were inoculated in 96-well plates for 24 h.
# [8] = target: T1, AChE; test: Time-course inactivation kinetics of AChE; assay type: biochemical; conditions: for Transition Free Energy Change ΔΔG°: ΔΔG° = −RTlnk
# Experimental: We determined enzyme activities at diverse contents every 3 min for 0–30 min and every 5 min for 30–70 min.
# [9] = system: AChE; conditions: cited from earlier work
# [10] = system: PC12 cells; conditions: 10 µM; ref 54 (Liu et al.); cited from earlier work
# [11] = molar ratio quercetin:AChE 10:1
# T1 sequence (O42275 24-633): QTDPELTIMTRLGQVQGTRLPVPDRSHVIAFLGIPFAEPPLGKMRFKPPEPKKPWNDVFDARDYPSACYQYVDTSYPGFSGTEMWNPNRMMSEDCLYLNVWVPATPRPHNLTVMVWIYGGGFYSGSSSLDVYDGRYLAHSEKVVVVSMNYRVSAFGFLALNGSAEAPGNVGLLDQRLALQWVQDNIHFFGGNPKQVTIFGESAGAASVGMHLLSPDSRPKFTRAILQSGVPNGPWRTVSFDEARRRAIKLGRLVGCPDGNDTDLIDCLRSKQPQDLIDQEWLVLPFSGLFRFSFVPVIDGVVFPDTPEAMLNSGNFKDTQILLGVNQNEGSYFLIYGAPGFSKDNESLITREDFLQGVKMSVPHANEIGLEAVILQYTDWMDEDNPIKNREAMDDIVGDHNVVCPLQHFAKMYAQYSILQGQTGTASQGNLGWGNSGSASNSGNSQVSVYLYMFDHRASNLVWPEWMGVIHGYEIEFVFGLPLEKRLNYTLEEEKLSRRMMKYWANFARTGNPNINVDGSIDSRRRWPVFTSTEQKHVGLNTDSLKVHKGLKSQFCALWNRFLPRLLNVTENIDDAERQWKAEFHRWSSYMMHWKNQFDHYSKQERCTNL
compound,measurement,setting,value
"O=c1c(O)c(-c2ccc(O)c(O)c2)oc2cc(O)cc(O)c12 [quercetin, 3,3′,4′,5,7-pentahydroxyflavone]",β-Sheet of AChE,"[1]; molar ratio quercetin:AChE 2:1, free AChE 18.62 ± 0.06",17.31 ± 0.09 ^b %
same,β-Turn of AChE,"[1]; molar ratio quercetin:AChE 2:1, free AChE 19.18 ± 0.28",20.15 ± 0.24 ^c %
same,Random Coil of AChE,"[1]; molar ratio quercetin:AChE 2:1, free AChE 28.02 ± 0.65",25.41 ± 0.34 ^b %
same,α-Helix of AChE,"[1]; molar ratio quercetin:AChE 2:1, free AChE 34.35 ± 0.74",37.13 ± 0.16 ^c %
same,Random Coil of AChE,[1]; molar ratio quercetin:AChE 6:1,23.71± 0.28 ^c %
same,β-Sheet of AChE,[1]; molar ratio quercetin:AChE 6:1,16.20 ± 0.17 ^c %
same,β-Turn of AChE,[1]; molar ratio quercetin:AChE 6:1,21.62 ± 0.13 ^b %
same,Random Coil of AChE,[1]; [11],20.19% and 20.19 ± 0.37 ^d %
same,α-Helix of AChE,[1]; [11],41.51% and 41.51 ± 0.28 ^a %
same,β-Sheet of AChE,[1]; [11],15.16% and 15.16 ± 0.14 ^d %
same,β-Turn of AChE,[1]; [11],23.14% and 23.14 ± 0.32 ^a %
same,release of MDA,[2],inhibited
same,GSH levels versus model group,"[3]; 1 µM pretreatment, p > 0.05",no statistical difference
same,intracellular GSH levels versus model group,"[3]; 10, 20, and 40 µM pretreatment, dose-dependent",increased
same,type of inhibition,"[4]; Lineweaver–Burk, c(AChE) = 0.57 nM, quercetin 0–12.0 µM",mixed inhibitory type
same,reversibility of inhibition,"[4]; plots of v versus [AChE], c(ATCI) = 0.25 mM, quercetin 0–8.0 µM",reversible inhibitor
same,αKi (binding to AChE–ATCI complex),[4]; secondary plot of Lineweaver–Burk y-intercepts,19.53 ± 0.65 µM
same,"cytotoxicity (cell viability, MTT)",[5],no toxic effect
same,"bimolecular quenching rate constant Kq, magnitude order","[6]; 25, 31 and 37 °C",~10^12 L mol^−1 s^−1
same,Gibbs free energy ∆G°,[6]; 25 °C,-27.09 ± 0.03 kJ/mol
same,binding site quantity n,[6]; 25 °C,0.75 ± 0.04
same,quenching constant KSV,"[6]; 25 °C, pH 7.6",6.21 ± 0.08 ^a ×10^4 L mol^−1
same,Gibbs free energy ∆G°,[6]; 31 °C,-26.37 ± 0.05 kJ/mol
same,binding site quantity n,[6]; 31 °C,0.69 ± 0.01
same,quenching constant KSV,[6]; 31 °C,4.81 ± 0.06 ^b ×10^4 L mol^−1
same,Gibbs free energy ∆G°,[6]; 37 °C,-25.64 ± 0.07 kJ/mol
same,binding site quantity n,[6]; 37 °C,0.67 ± 0.03
same,quenching constant KSV,[6]; 37 °C,3.33 ± 0.05 ^c ×10^4 L mol^−1
same,enthalpy change ∆H°,"[6]; van't Hoff equation, 25–37 °C",-63.39 ± 0.07 kJ/mol
same,entropy change ∆S°,"[6]; van't Hoff equation, 25–37 °C",-121.8 ± 0.06 J mol^−1 K^−1
same,"cell viability, % of the control group",[7]; pretreatment 1 µM,56.06 ± 3.82%
same,"cell viability, % of the control group",[7]; pretreatment 10 µM,62.14 ± 2.79%
same,"cell viability, % of the control group",[7]; pretreatment 20 µM,68.58 ± 2.12%
same,"cell viability, % of the control group",[7]; pretreatment 40 µM,78.61 ± 3.26%
same,"cell viability, % of the control group",[7]; pretreatment 80 µM,79.48 ± 4.32%
same,Inactivation Rate Constant k,[8]; quercetin 1.5 µM,4.18 ± 0.06 ×10^−4 s^−1 and 4.18 ± 0.06 ^d ×10^−4 s^−1
same,Inactivation Rate Constant k,[8]; quercetin 3.0 µM,5.73 ± 0.03 ^c ×10^−4 s^−1
same,Inactivation Rate Constant k,[8]; quercetin 6.0 µM,6.04 ± 0.08 ^b ×10^−4 s^−1
same,Inactivation Rate Constant k,[8]; quercetin 15.0 µM,6.41 ± 0.05 ×10^−4 s^−1 and 6.41 ± 0.05 ^a ×10^−4 s^−1
"O=C1c2c(O)cc(O)cc2OC(c2ccc(O)c(O)c2)C1O (stereo not drawn) [taxifolin, reference compound]",IC50,[9],54 ± 1.58 µM
"C[C@@H]1O[C@@H](Oc2c(-c3ccc(O)c(O)c3)oc3cc(O)cc(O)c3c2=O)[C@H](O)[C@H](O)[C@H]1O [quercitrin, reference compound]",IC50,[9]; no reference at the value itself,94.5 µM
COc1ccc2c3c1O[C@H]1C[C@@H](O)C=C[C@@]31CCN(C)C2 [galantamine hydrobromide],protection of cells against Aβ25–35 neurotoxicity,[10],significantly protected
